According to PubChem BioAssay (NCI):
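Briefly, cells in 96-well plates were exposed to five compound concentrations for 48 h, and endpoints were estimated by linear interpolation. TGI marks complete inhibition of growth.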

How the values were obtained:
Experiment in all cases: growth of human tumour cells (NCI), 48 h
786-0 renal = system: 786-0 renal
A498 renal = system: A498 renal
A549 NSCLC = system: A549 NSCLC
ACHN renal = system: ACHN renal
BT-549 breast = system: BT-549 breast
CAKI-1 renal = system: CAKI-1 renal
CCRF-CEM leukemia = system: CCRF-CEM leukemia
COLO 205 colon = system: COLO 205 colon
DU-145 prostate = system: DU-145 prostate
EKVX NSCLC = system: EKVX NSCLC
HCC-2998 colon = system: HCC-2998 colon
HCT-116 colon = system: HCT-116 colon
HCT-15 colon = system: HCT-15 colon
HL-60(TB) leukemia = system: HL-60(TB) leukemia
HOP-62 NSCLC = system: HOP-62 NSCLC
HOP-92 NSCLC = system: HOP-92 NSCLC
HS 578T breast = system: HS 578T breast
HT29 colon = system: HT29 colon
IGROV1 ovarian = system: IGROV1 ovarian
K-562 leukemia = system: K-562 leukemia
KM12 colon = system: KM12 colon
LOX IMVI melanoma = system: LOX IMVI melanoma
M14 melanoma = system: M14 melanoma
MALME-3M melanoma = system: MALME-3M melanoma
MCF7 breast = system: MCF7 breast
MDA-MB-231 breast = system: MDA-MB-231 breast
MDA-MB-435 = system: MDA-MB-435
MDA-N = system: MDA-N
MOLT-4 leukemia = system: MOLT-4 leukemia
NCI-H226 lung = system: NCI-H226 lung
NCI-H23 lung = system: NCI-H23 lung
NCI-H460 lung = system: NCI-H460 lung
NCI-H522 lung = system: NCI-H522 lung
NCI/ADR-RES ovarian = system: NCI/ADR-RES ovarian
OVCAR-3 ovarian = system: OVCAR-3 ovarian
OVCAR-4 ovarian = system: OVCAR-4 ovarian
OVCAR-5 ovarian = system: OVCAR-5 ovarian
OVCAR-8 ovarian = system: OVCAR-8 ovarian
PC-3 prostate = system: PC-3 prostate
RPMI-8226 leukemia = system: RPMI-8226 leukemia
RXF 393 renal = system: RXF 393 renal
SF-268 CNS = system: SF-268 CNS
SF-295 CNS = system: SF-295 CNS
SF-539 CNS = system: SF-539 CNS
SK-MEL-2 melanoma = system: SK-MEL-2 melanoma
SK-MEL-28 melanoma = system: SK-MEL-28 melanoma
SK-MEL-5 melanoma = system: SK-MEL-5 melanoma
SK-OV-3 ovarian = system: SK-OV-3 ovarian
SN12C renal = system: SN12C renal
SNB-19 CNS = system: SNB-19 CNS
SNB-75 CNS = system: SNB-75 CNS
SR leukemia = system: SR leukemia
SW-620 colon = system: SW-620 colon
T-47D breast = system: T-47D breast
TK-10 renal = system: TK-10 renal
U251 CNS = system: U251 CNS
UACC-257 melanoma = system: UACC-257 melanoma
UACC-62 melanoma = system: UACC-62 melanoma
UO-31 renal = system: UO-31 renal

## COC(=O)c1ccccc1C1CN=NC12Cc1cc(C)ccc1C2=O (stereo unspecified)
786-0 renal
  TGI: > 100 µM
A498 renal
  TGI: > 100 µM
A549 NSCLC
  TGI: > 100 µM
ACHN renal
  TGI: > 100 µM
BT-549 breast
  TGI: > 100 µM
CAKI-1 renal
  TGI: > 100 µM
CCRF-CEM leukemia
  TGI: > 100 µM
COLO 205 colon
  TGI: > 100 µM
DU-145 prostate
  TGI: > 100 µM
EKVX NSCLC
  TGI: > 100 µM
HCC-2998 colon
  TGI: > 100 µM
HCT-116 colon
  TGI: > 100 µM
HCT-15 colon
  TGI: > 100 µM
HL-60(TB) leukemia
  TGI: > 100 µM
HOP-62 NSCLC
  TGI: > 100 µM
HOP-92 NSCLC
  TGI: > 100 µM
HS 578T breast
  TGI: > 100 µM
HT29 colon
  TGI: > 100 µM
IGROV1 ovarian
  TGI: > 100 µM
K-562 leukemia
  TGI: > 100 µM
KM12 colon
  TGI: > 100 µM
LOX IMVI melanoma
  TGI: > 100 µM
M14 melanoma
  TGI: > 100 µM
MALME-3M melanoma
  TGI: > 100 µM
MCF7 breast
  TGI: 75.4 µM
MDA-MB-231 breast
  TGI: > 100 µM
MDA-MB-435
  TGI: > 100 µM
MDA-N
  TGI: > 100 µM
MOLT-4 leukemia
  TGI: > 100 µM
NCI-H226 lung
  TGI: > 100 µM
NCI-H23 lung
  TGI: > 100 µM
NCI-H460 lung
  TGI: > 100 µM
NCI-H522 lung
  TGI: > 100 µM
NCI/ADR-RES ovarian
  TGI: > 100 µM
OVCAR-3 ovarian
  TGI: > 100 µM
OVCAR-4 ovarian
  TGI: > 100 µM
OVCAR-5 ovarian
  TGI: > 100 µM
OVCAR-8 ovarian
  TGI: > 100 µM
PC-3 prostate
  TGI: > 100 µM
RPMI-8226 leukemia
  TGI: > 100 µM
RXF 393 renal
  TGI: > 100 µM
SF-268 CNS
  TGI: > 100 µM
SF-295 CNS
  TGI: > 100 µM
SF-539 CNS
  TGI: > 100 µM
SK-MEL-2 melanoma
  TGI: > 100 µM
SK-MEL-28 melanoma
  TGI: > 100 µM
SK-MEL-5 melanoma
  TGI: > 100 µM
SK-OV-3 ovarian
  TGI: > 100 µM
SN12C renal
  TGI: > 100 µM
SNB-19 CNS
  TGI: > 100 µM
SNB-75 CNS
  TGI: > 100 µM
SR leukemia
  TGI: > 100 µM
SW-620 colon
  TGI: > 100 µM
T-47D breast
  TGI: > 100 µM
TK-10 renal
  TGI: > 100 µM
U251 CNS
  TGI: > 100 µM
UACC-257 melanoma
  TGI: > 100 µM
UACC-62 melanoma
  TGI: > 100 µM
UO-31 renal
  TGI: > 100 µM

## CSc1nc(SC)c2c(CO)c(Br)n(Cc3ccccc3)c2n1
786-0 renal
  TGI: 37.6 µM
A498 renal
  TGI: 14.5 µM
A549 NSCLC
  TGI: > 100 µM
ACHN renal
  TGI: 44.7 µM
BT-549 breast
  TGI: 62.4 µM
CAKI-1 renal
  TGI: 23.6 µM
CCRF-CEM leukemia
  TGI: > 100 µM
COLO 205 colon
  TGI: > 100 µM
DU-145 prostate
  TGI: 77.8 µM
EKVX NSCLC
  TGI: > 100 µM
HCC-2998 colon
  TGI: > 100 µM
HCT-116 colon
  TGI: > 100 µM
HCT-15 colon
  TGI: > 100 µM
HL-60(TB) leukemia
  TGI: > 100 µM
HOP-62 NSCLC
  TGI: 80.1 µM
HOP-92 NSCLC
  TGI: 41.8 µM
HS 578T breast
  TGI: 58.9 µM
HT29 colon
  TGI: > 100 µM
IGROV1 ovarian
  TGI: 39.3 µM
KM12 colon
  TGI: > 100 µM
LOX IMVI melanoma
  TGI: > 100 µM
M14 melanoma
  TGI: > 100 µM
MALME-3M melanoma
  TGI: > 100 µM
MCF7 breast
  TGI: > 100 µM
MDA-MB-231 breast
  TGI: 36.5 µM
MDA-MB-435
  TGI: > 100 µM
MDA-N
  TGI: > 100 µM
MOLT-4 leukemia
  TGI: > 100 µM
NCI-H226 lung
  TGI: 39.3 µM
NCI-H23 lung
  TGI: > 100 µM
NCI-H460 lung
  TGI: 30.5 µM
NCI-H522 lung
  TGI: 68.8 µM
NCI/ADR-RES ovarian
  TGI: > 100 µM
OVCAR-3 ovarian
  TGI: > 100 µM
OVCAR-4 ovarian
  TGI: 41.7 µM
OVCAR-5 ovarian
  TGI: > 100 µM
OVCAR-8 ovarian
  TGI: 44.1 µM
PC-3 prostate
  TGI: > 100 µM
RPMI-8226 leukemia
  TGI: > 100 µM
RXF 393 renal
  TGI: 60.3 µM
SF-268 CNS
  TGI: 33.7 µM
SF-295 CNS
  TGI: 40.9 µM
SF-539 CNS
  TGI: 29.1 µM
SK-MEL-2 melanoma
  TGI: > 100 µM
SK-MEL-28 melanoma
  TGI: > 100 µM
SK-MEL-5 melanoma
  TGI: > 100 µM
SK-OV-3 ovarian
  TGI: 37.6 µM
SN12C renal
  TGI: > 100 µM
SNB-19 CNS
  TGI: 84.3 µM
SNB-75 CNS
  TGI: 29.9 µM
SR leukemia
  TGI: > 100 µM
SW-620 colon
  TGI: > 100 µM
T-47D breast
  TGI: 74.2 µM
TK-10 renal
  TGI: 79.4 µM
U251 CNS
  TGI: 26.3 µM
UACC-62 melanoma
  TGI: 41.9 µM
UO-31 renal
  TGI: 44.4 µM
